Measured values: BindingDB's records for PubMed 38477709 (Washington University School of Medicine)

Target: Coagulation factor X (Homo sapiens, UniProt P00742)
Assay: Inhibition of factor Xa (unknown origin) using Bz-lle-Glu-Gly-Arg-pNA as chromogenic substrate preincubated for 30 mins followed by substrate addition by absorbance based analysis

Sequence of Coagulation factor X (P00742 41-179 limits assumed): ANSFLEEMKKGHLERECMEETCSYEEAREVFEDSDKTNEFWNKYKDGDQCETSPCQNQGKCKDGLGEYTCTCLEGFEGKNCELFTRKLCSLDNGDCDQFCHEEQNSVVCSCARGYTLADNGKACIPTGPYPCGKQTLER
Sequence of Coagulation factor X (P00742 235-488 limits assumed): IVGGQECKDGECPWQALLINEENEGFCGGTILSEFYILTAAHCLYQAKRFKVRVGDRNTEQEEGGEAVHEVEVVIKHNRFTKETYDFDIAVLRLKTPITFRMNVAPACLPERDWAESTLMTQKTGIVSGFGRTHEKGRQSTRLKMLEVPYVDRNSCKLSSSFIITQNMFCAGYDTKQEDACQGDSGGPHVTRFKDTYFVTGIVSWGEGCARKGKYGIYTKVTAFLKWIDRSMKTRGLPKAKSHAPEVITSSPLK

IC50 | SMILES
> 20 µM | CC(=O)N[C@H]1Cc2ccc(cc2)OCC=CCNC(=O)C[C@@H](C(=O)N[C@@H](CCCNC(=N)N)C(=O)c2nc3ccccc3s2)NC(=O)[C@H](CC(C)C)NC1=O
> 20 µM | CC(=O)N[C@H]1Cc2ccc(cc2)OCC=CCNC(=O)CC[C@@H](C(=O)N[C@@H](CCCNC(=N)N)C(=O)c2nc3ccccc3s2)NC(=O)[C@H](CC(C)C)NC1=O
